Test system: M. tuberculosis H37Rv growth inhibition
Test: M. tuberculosis H37Rv growth inhibitors, H37Rv strain (AID 1626)
Conditions: for IC90: measured here: IC90 against H37Rv; for CC50: measured here: Vero cell cytotoxicity

Compound	IC50 [µM]	IC90 [µM]	CC50 [µM]
CC(C)N1CCC2(CC1)N=C(c1ccc3c(c1)OCO3)CC(c1cc(Cl)ccc1O)N2 (stereo not drawn)	8.26	12.4	12.5
CCOC(=O)Nc1ccc(C(=O)Oc2ccccc2)c(O)c1	< 0.195	> 100	> 40
COc1ccccc1-c1nnc(NC(=O)c2ccc3ncsc3c2)o1	4.17	> 100	24.3
O=C(Nc1nnc(-c2ccc(Cl)cc2)o1)C1CCCCC1	3.32	> 100	> 40
Nc1ccc2c(c1)oc1ccccc12	1.96	> 100	
Fc1ccc(Oc2nc(-c3ccccn3)nc3ccccc23)cc1	1.96	11.2	> 40
Cc1ccc2nc(/N=C(\N)NC(=O)NC3CCCCC3)nc(C)c2c1	5.92	6.73	25.3
CC1Cc2ccccc2N1C(=O)COC(=O)c1ccc(Cl)nc1 (stereo not drawn)	10.7	> 100	
CCCOC(=O)c1ccc(NC(=O)c2cnccn2)cc1	15	> 100	
O=c1cc(-c2ccccc2)nc(N2CCN(Cc3ccc4c(c3)OCO4)CC2)[nH]1	89	> 100	
CC(C)(C)c1cc(NCCCn2ccnc2)n2ncc(-c3ccc(Cl)cc3)c2n1	0.939	1.43	22.3
O=C1CCCC(O)=C1C=Nc1ccc2c(c1)oc1ccccc12	< 0.195	> 100	
CN(C)CCCN(C(=O)CCc1ccccc1)c1nc2ccc(Br)cc2s1	22.5	24.2	16.7
COc1ccc(/C=c2\s/c(=C\C(=O)C(C)(C)C)[nH]c2=O)cc1O	5.62	7.63	25.3
O=C(CSc1nc2ccc(Nc3nc(N4CCOCC4)nc(N4CCOCC4)n3)cc2s1)NCc1ccco1	36.5	> 100	> 40
O=C(CSc1nc2ccccc2o1)NCC(=O)c1ccccc1	8.36	25.9	
O=C(CSc1nnc(-c2cccs2)o1)OC1CCCCC1	2.23	7.65	
COc1cc(/C=C/C(=O)OCC(=O)NC(=O)NC23CC4CC(CC(C4)C2)C3)ccc1OCC#N	8.37	> 100	> 40
Cc1sc(NC(=O)c2ccco2)c(C(c2ccccc2)N2CCC(C)CC2)c1C (stereo not drawn)			> 40
COc1ccc(N/C=C/C(=O)c2ccc(Cl)cc2)cc1			> 40
CCCCNC(=O)c1cc2n(n1)C(C(F)(F)F)CC(c1ccccc1)N2 (stereo not drawn)	0.363	4.14	

Compound	IC50 [µM]	IC90 [µM]	CC50 [µM]
CC1CCCN(C(=O)C2CCC(CNc3c(N4CCCCC4)c(=O)c3=O)CC2)C1 (stereo not drawn)	11.7	> 100	
CC(C)Cc1cc(C(=O)Nc2c(F)cc(F)cc2Br)no1	6.59	10.5	
O=[N+]([O-])c1cc(CN2CCCC2)ccc1Sc1ccc(Cl)cc1	29.8	> 100	> 40
Cc1c([N+](=O)[O-])cc(C(=O)NCc2ccc(F)cc2)cc1[N+](=O)[O-]	< 0.195	> 100	
Clc1ccc(COC(Cn2ccnc2)c2ccc(Cl)cc2Cl)cc1 (stereo not drawn)	3.74	5.68	33.1
Nc1ccc2oc(-c3cccc(Br)c3)nc2c1	3.98	> 100	
CN(Cc1nc2ccccc2c(=O)[nH]1)Cc1nc2ccsc2c(=O)[nH]1	1.95	4.36	
O=C(Nc1nc(-c2ccccn2)cs1)c1ccc(Br)s1	< 0.195	0.585	2.73
CCCCn1c(O)c(C(CC)=Nc2ccc(OCC)cc2)c(=O)[nH]c1=O	7.89	> 100	> 40
CCc1cc2cc(C(=O)Nc3ccc(F)cc3)sc2s1	0.512	0.79	
COc1ccc(CCNCC(O)Cn2c3ccccc3c3ccccc32)cc1OC (stereo not drawn)	10.6	15.2	11.8
O=C(/C=C/c1ccnc2ccccc12)c1cccs1	17.6	24.6	> 40
O=C(CCCC(=O)OCC(=O)c1cccs1)Nc1ccc(Oc2ccccc2)cc1	17.4	> 100	
O=[N+]([O-])c1ccc(-n2nnnc2-c2ccccc2)c([N+](=O)[O-])c1	5.8	9.88	10.7
COc1ccc2nc(/N=C(\N)NC(=O)N3c4ccccc4Sc4ccccc43)nc(C)c2c1	28.5	> 100	> 40
Cc1ccc2nc(Cl)c(CNCc3ccccc3)cc2c1	5.64	14.1	
CCC(=O)c1ccc(OCC(=O)Nc2ccc3nc(C)sc3c2)cc1	6.26	> 100	
CCOc1ccc(-c2cc(CCCC(=O)Nc3cccc(OC)c3)no2)cc1	10.7	> 100	> 40
Nc1cc2nc3ccccc3oc-2cc1=O	0.368	0.916	> 40
CCCCCc1cc(=O)oc2c(C(CCN(CC)CC)c3ccc(OC)cc3)c(OC)cc(OC)c12 (stereo not drawn)	9.08	11.7	13
Cc1ccc(NC(=O)/C=C/c2ccc([N+](=O)[O-])s2)cc1	45.9	> 100	> 40

Compound	IC50 [µM]	IC90 [µM]	CC50 [µM]
Cc1cc(NC(=O)CSc2nnc(-c3ccccc3)o2)no1	5.7	10.1	> 40
OC(c1cc(-c2ccc(Cl)cc2)nc2ccccc12)C1CCCCN1 (stereo not drawn)	4.52	13.5	7.35
COc1cc(OC)c(-c2nn3c(C4CCCCC4)nnc3s2)cc1OC	2.2	6.47	
CS(=O)(=O)Nc1cccc2cccnc12	11.7	12.9	> 40
O=C(c1ccc(CNc2c(N3CCCC3)c(=O)c2=O)cc1)N1CC=C(c2ccccc2)CC1	26.2	> 100	
COc1ccc2cc(-c3[nH]ncc3CN3CCCN(c4ccccc4)CC3)ccc2c1	9.35	15.4	> 40
CCOC(=O)CSc1cccc2cccnc12			30.7
O=C(c1c[nH]c(C(=O)N2CCN(c3ccccc3F)CC2)c1)c1cccc(Cl)c1Cl			16.9
CN1Cc2c(N3CCOCC3)nc3sc(C(=O)c4ccc(Br)cc4)c(N)c3c2CC1(C)C	5.56	6.26	10.2
Cn1c(O)c(C=Nc2ccc3c(c2)CCC3)c(=O)n(C)c1=O		> 100	
COc1ccc(C(CCN2CCCC(C)C2)c2c(OC)cc(OC)c3c(-c4ccccc4)cc(=O)oc23)cc1 (stereo not drawn)	7.53	10.2	14.1
CCCc1cc(C(=O)Nc2nccs2)cs1	17.7	> 100	
Cc1cc(C(=O)c2ccc(C(C)(C)C)cc2)c(NC(=O)CCl)s1	19.5	> 100	27.2
O=C(Nc1ccc(-c2csnn2)cc1)C(Cl)(Cl)Cl	< 0.195	> 100	
CCC(=O)Nc1ccc(-c2nc3ccccc3c(=O)o2)cc1	18	84	
Cc1cccc(N=C2NN=C(c3c(C)[nH]c4ccccc34)CS2)c1	10.4	16.3	38.6
CCCCCCCCSc1nnc(CSc2nc3nc(C)cc(C)n3n2)o1	0.635	24.6	
CCCc1cc(NCc2ccccn2)n2nc(C)c(-c3ccccc3)c2n1	4.33	7.09	> 40
COCCCN=C1NN=C(c2cc(C)n(-c3ccccc3F)c2C)CS1	5.21	7.08	21.7
CCN(CC)C(=O)CSc1nnc2nnc3cc(Cl)ccc3n12	1.22	7.51	19.8
CC1CCCC(NC(=O)COC(=O)c2sc3ccccc3c2Cl)C1C (stereo not drawn)	7.47	> 100	

Compound	IC50 [µM]	IC90 [µM]	CC50 [µM]
O=C(O)c1ccc(-c2nc(-c3ccc(Cl)cc3)cs2)cc1	88.6	> 100	> 40
Cc1ccc(Nc2nc(N3CCN(C)CC3)nc(N)c2[N+](=O)[O-])cc1C	9.67	14.5	
COc1cccc(CNc2cnc3ccccc3c2)c1O	28.6	> 100	
O=C1N=C2N(CCN3CCCCC3)c3ccccc3N2/C1=C\c1ccc([N+](=O)[O-])o1	1.56	1.6	4.9
O=C(CSc1nnc(CNc2cccc(Cl)c2)o1)OC1CCCCC1	0.661	1.4	
O=C(O)c1ccc(N2C(=O)/C(=C/c3ccc(-c4ccc([N+](=O)[O-])cc4)o3)C=C2c2ccccc2)cc1	19	26.5	20.1
O=C(NCCN1CCOCC1)c1ccc([N+](=O)[O-])cc1[N+](=O)[O-]	2.11	3.4	
CC(C)COCC(CN(Cc1ccccc1)c1ccccc1)N1CCCC1 (stereo not drawn)	14.8	20.1	> 40
Cc1cc(Cl)cc(C)c1OCCCCn1ccnc1	9.33	12.7	> 40
Cn1c(NCc2ccccc2)nc2c1c(=O)n(Cc1ccc(Br)cc1)c(=O)n2C	13.8	> 100	> 40
CCOc1ccc(N=Cc2c(O)n(-c3ccc(C)c(C)c3)c(=O)[nH]c2=O)cc1	< 0.195	> 100	
CCOC(=O)Oc1ccc2oc(C)c(C(=O)OCCOC)c2c1	26.1	> 100	
C=C1C2(C(=O)Nc3ccc(SC(F)F)cc3)CCC(C2)C1(C)C (stereo not drawn)		> 100	
O=C1C2C(c3ccccc3)(C(=O)N1c1ccc(Cl)cc1)C2(c1ccccc1)c1ccccc1 (stereo not drawn)	22.4	> 100	> 40
C[C@H](NC(=O)c1[nH]cnc1C(=O)Nc1ccccc1)C(=O)OC(C)(C)C	1.68	5.62	> 40
Cc1nn(-c2ccccc2)c2c1C(c1ccc([N+](=O)[O-])cc1)N1C(=N2)C(=O)Nc2ccccc21 (stereo not drawn)	19.1	> 100	> 40
O=C(CNC1CCCC1)Nc1ccc(N2CCCCCC2)cc1	8.04	10.2	37.7
CCOc1ccc(NCC(=O)Nc2ccc(C)cc2C)cc1	62.4	> 100	
COc1cnc(-c2ccccn2)nc1Sc1ccc(F)cc1	< 0.195	12.9	19.2
